Source: the supplement of paper PMC10307832

Key:
Experiment in all cases: relative viability (nuclei count vs DMSO), 5 days (fraction); higher = more cells survive
[1] = compound: Nc1nc(Nc2ccc3c(c2)CC[C@@H](N2CCCC2)CC3)nn1-c1cc2c(nn1)-c1ccccc1CCC2 [Bemcentinib] + CC(=O)Nc1cccc(-n2c(=O)n(C3CC3)c(=O)c3c(Nc4ccc(I)cc4F)n(C)c(=O)c(C)c32)c1 [Trametinib] (partner 0.02 µM)
Method in brief: (§1)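 Relative viability was taken as the ratio of nuclei in treated wells to nuclei in vehicle wells. Lung cancer cell lines in 1536-well plates received compounds by pin tool one day after seeding, either one drug alone or a fixed anchor-drug dose plus five library-drug doses (not always all listed) in √10 steps. Nuclei were counted on 4× images after 5 days of treatment, and values are medians of duplicate plates.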

[2] = compound: CC1=CC=C(C=C1)C(=O)CN2C3=C(CCCC3)SC2=N [Pifithrin_alpha] + Nc1ncn([C@H]2C[C@H](O)[C@@H](CO)O2)c(=O)n1 [Decitabine] (partner 2 µM)
Method in brief: as §1

[3] = compound: CNC(=O)c1ccccc1Sc1ccc2c(/C=C/c3ccccn3)n[nH]c2c1 [Axitinib] + Cc1nc(Nc2ncc(C(=O)Nc3c(C)cccc3Cl)s2)cc(N2CCN(CCO)CC2)n1 [Dasatinib] (partner 0.075 µM)
Method in brief: as §1

[4] = compound: Nc1nc(Nc2ccc3c(c2)CC[C@@H](N2CCCC2)CC3)nn1-c1cc2c(nn1)-c1ccccc1CCC2 [Bemcentinib] + CC(C)C[C@H](NC(=O)[C@H](Cc1ccccc1)NC(=O)c1cnccn1)B(O)O [Bortezomib] (partner 0.002 µM)
Method in brief: as §1

| Cell Line | relative viability ([1]; first compound 0.04 µM) | relative viability ([1]; first compound 0.1265 µM) | relative viability ([1]; first compound 0.4 µM) | relative viability ([1]; first compound 1.265 µM) | relative viability ([1]; first compound 4 µM) | relative viability ([2]; first compound 1 µM) | relative viability ([2]; first compound 3.162 µM) | relative viability ([2]; first compound 10 µM) | relative viability ([2]; first compound 31.62 µM) | relative viability ([2]; first compound 100 µM) | relative viability ([3]; first compound 0.005 µM) | relative viability ([3]; first compound 0.01581 µM) | relative viability ([3]; first compound 0.05 µM) | relative viability ([3]; first compound 0.1581 µM) | relative viability ([3]; first compound 0.5 µM) | relative viability ([4]; first compound 0.04 µM) | relative viability ([4]; first compound 0.1265 µM) | relative viability ([4]; first compound 0.4 µM) | relative viability ([4]; first compound 1.265 µM) | relative viability ([4]; first compound 4 µM) |
| --- | --- | --- | --- | --- | --- | --- | --- | --- | --- | --- | --- | --- | --- | --- | --- | --- | --- | --- | --- | --- |
| BEN | 1.01 | 1.18 | 1.21 | 1.04 | 1.03 | 0.505 | 0.771 | 0.742 | 0.623 | 0.639 | 0.293 | 0.264 | 0.314 | 0.365 | 0.263 | 0.56 | 0.899 | 0.891 | 0.506 | 0.776 |
| NCI-H727 | 0.39 | 0.381 | 0.385 | 0.424 | 0.414 | 0.328 | 0.782 | 0.835 | 0.731 | 0.749 | 0.403 | 0.371 | 0.436 | 0.465 | 0.347 | 0.691 | 1.12 | 0.918 | 0.746 | 1.1 |
| NCI-H1915 | 0.291 | 0.29 | 0.283 | 0.293 | 0.305 | 0.27 | 0.254 | 0.249 |  | 0.224 | 0.307 | 0.289 | 0.315 | 0.29 | 0.252 | 0.731 | 1.02 | 1.04 | 0.853 | 1.05 |
| HARA | 0.769 | 0.83 | 0.69 | 0.67 | 0.96 | 0.474 | 0.622 | 0.628 | 0.514 | 0.472 | 0.211 | 0.2 | 0.293 | 0.246 | 0.253 | 1.19 | 1.17 | 1.27 | 1.15 | 1.1 |
| NCI-H1650 | 0.483 | 0.684 | 0.617 | 0.594 | 0.459 | 0.382 | 0.442 | 0.593 | 0.32 | 0.406 | 0.317 | 0.318 | 0.324 | 0.332 | 0.302 | 0.199 | 0.209 | 0.199 | 0.192 | 0.225 |
| EMC-BAC-2 | 0.874 | 0.896 | 0.873 | 0.897 | 0.967 |  | 0.95 |  | 0.84 | 0.972 | 0.353 | 0.327 | 0.315 | 0.379 | 0.383 | 1.07 | 1.15 | 1.07 | 0.952 | 1.11 |
| LOU-NH91 | 0.807 | 0.792 | 0.849 | 0.822 | 0.789 | 0.758 | 0.79 | 0.808 | 0.705 | 0.742 | 0.569 | 0.434 | 0.61 | 0.558 | 0.568 | 0.429 | 0.503 | 0.493 | 0.487 | 0.407 |
| NCI-H3122 | 0.25 | 0.248 | 0.214 | 0.252 | 0.244 | 0.529 | 0.443 | 0.539 | 0.364 | 0.468 | 0.881 | 0.819 | 0.895 | 0.724 | 0.735 | 0.911 | 1.04 | 0.991 | 0.937 | 0.994 |
